Laboratory results as given in publication PMC4965013, “Open Source Drug Discovery with the Malaria Box Compound Collection for Neglected Diseases and Beyond” (PLoS Pathogens, 2016).
Values belong to the molecule of their own block, whether it stands above or below them.

Assays:
[1] = system: P. falciparum 3D7 trophozoites; assay: Metabolomic fingerprint profiling LC-MS; assay type: cell-based, Plasmodium falciparum; design: UDP-D-glucose / ADP-D-glucose: unit not given here; conditions: for Acetyllysine / N-acetyl-L-ornithine / N-carbamoyl-L-aspartate / NADPH / dAMP / dCMP / dTDP / dTMP / dTTP / dihydroorotate / orotate / DLH / DLS/SDL/SID / PD / PEE / PVNF / 3-phosphoglycerate / ADP-D-glucose / ATP / CDP / D-sedoheptulose-1/7-phosphate / FAD / GMP / NAD+ / NADP+ / Octoluse Bisphosphate / Pyroglutamic acid / UDP-D-glucose / UDP-D-glucuronate / UDP-N-acetyl-glucosamine / UDP / UMP / UTP / a-ketoglutarate / citrate/isocitrate / cytidine / dATP / dGMP/AMP / fumarate / glucose-1/6-phosphate / glycerate / guanine / guanosine / hypoxanthine / indole / inosine / nicotinate / ornithine / phosphoenolpyruvate / pyruvate / ribose-phosphate / sarcosine/alanine / sn-glycerol-3-phosphate / succinate/methylmalonic acid / uridine / xanthosine: S2 Table Metabolomics; for Acetyllysine: metabolite Acetyllysine; for N-acetyl-L-ornithine: metabolite N-acetyl-L-ornithine; for N-carbamoyl-L-aspartate: metabolite N-carbamoyl-L-aspartate; for NADPH: metabolite NADPH; for dAMP: metabolite dAMP; for dCMP: metabolite dCMP; for dTDP: metabolite dTDP; for dTMP: metabolite dTMP; for dTTP: metabolite dTTP; for dihydroorotate: metabolite dihydroorotate; for orotate: metabolite orotate; for DLH: peptide DLH; for DLS/SDL/SID: peptide DLS/SDL/SID; for PD: peptide PD; for PEE: peptide PEE; for PVNF: peptide PVNF; for 3-phosphoglycerate: metabolite 3-phosphoglycerate; for ADP-D-glucose: metabolite ADP-D-glucose; for ATP: metabolite ATP; for CDP: metabolite CDP; for CDP / D-sedoheptulose-1/7-phosphate / GMP / Octoluse Bisphosphate / UDP / UMP / UTP / citrate/isocitrate / dGMP/AMP / fumarate / glucose-1/6-phosphate / glycerate / guanine / guanosine / inosine / pyruvate / sarcosine/alanine / succinate/methylmalonic acid / uridine / xanthosine: change in metabolite level after compound treatment; for D-sedoheptulose-1/7-phosphate: metabolite D-sedoheptulose-1/7-phosphate; for FAD: metabolite FAD; for GMP: metabolite GMP; for NAD+: metabolite NAD+; for NADP+: metabolite NADP+; for Octoluse Bisphosphate: metabolite Octoluse Bisphosphate; for Pyroglutamic acid: metabolite Pyroglutamic acid; for UDP-D-glucose: metabolite UDP-D-glucose; for UDP-D-glucuronate: metabolite UDP-D-glucuronate; for UDP-N-acetyl-glucosamine: metabolite UDP-N-acetyl-glucosamine; for UDP: metabolite UDP; for UMP: metabolite UMP; for UTP: metabolite UTP; for a-ketoglutarate: metabolite a-ketoglutarate; for citrate/isocitrate: metabolite citrate/isocitrate; for cytidine: metabolite cytidine; for dATP: metabolite dATP; for dGMP/AMP: metabolite dGMP/AMP; for fumarate: metabolite fumarate; for glucose-1/6-phosphate: metabolite glucose-1/6-phosphate; for glycerate: metabolite glycerate; for guanine: metabolite guanine; for guanosine: metabolite guanosine; for hypoxanthine: metabolite hypoxanthine; for indole: metabolite indole; for inosine: metabolite inosine; for 2_3-Diphosphoglyceric acid / 4-phosphopantothenate / 6-phospho-D-gluconate / FMN / IMP / Pyrophosphate / Sedoheptoluse bisphosphate / cyclic-AMP / glutathione disulfide / lactate / myo-inositol: metabolite level change after treatment; for nicotinate: metabolite nicotinate; for ornithine: metabolite ornithine; for phosphoenolpyruvate: metabolite phosphoenolpyruvate; for pyruvate: metabolite pyruvate; for ribose-phosphate: metabolite ribose-phosphate; for sarcosine/alanine: metabolite sarcosine/alanine; for sn-glycerol-3-phosphate: metabolite sn-glycerol-3-phosphate; for succinate/methylmalonic acid: metabolite succinate/methylmalonic acid; for uridine: metabolite uridine; for xanthosine: metabolite xanthosine
P. falciparum = assay: EC50 listed in S2 Table Metabolomics (used to set the concentration tested); assay type: cell-based; conditions: Plasmodium falciparum; EC50 used for Factor_XEC50 in metabolomics; read-out: EC50_nM

EC50 (P. falciparum): 180 nM
Structure (SMILES): COc1ccc(Br)cc1C1Nc2ccc3ccccc3c2C2=C1C(=O)CC(c1ccccc1)C2 (stereo not shown) [MMV020885]
Acetyllysine [1]: -0.2018 | N-acetyl-L-ornithine [1]: 0.05879 | N-carbamoyl-L-aspartate [1]: 0.2499 | NADPH [1]: 0.3881 | dAMP [1]: -0.07633 | dCMP [1]: -0.1829 | dTDP [1]: -0.08159 | dTMP [1]: -0.06085 | dTTP [1]: 0.08356 | dihydroorotate [1]: 0.4211 | orotate [1]: -0.07163 | DLH [1]: 0.1131 | DLS/SDL/SID [1]: 0.0252 | PD [1]: -0.01204 | PEE [1]: -0.02185 | PVNF [1]: 0.06588 | 3-phosphoglycerate [1]: 0.1773 | ADP-D-glucose [1]: 0.1062 | ATP [1]: 0.1529 | CDP [1]: -0.1573 | D-sedoheptulose-1/7-phosphate [1]: -0.3333 | FAD [1]: 0.09744 | GMP [1]: 0.2606 | NAD+ [1]: -0.4069 | NADP+ [1]: 0.1167 | Octoluse Bisphosphate [1]: 0.1001 | Pyroglutamic acid [1]: 0.05012 | UDP-D-glucose [1]: 0.09185 | UDP-D-glucuronate [1]: 0.09622 | UDP-N-acetyl-glucosamine [1]: 0.0596 | UDP [1]: -0.2367 | UMP [1]: 0.2791 | UTP [1]: -0.3268 | a-ketoglutarate [1]: 0.1759 | citrate/isocitrate [1]: -0.004418 | cytidine [1]: -0.005151 | dATP [1]: 0.1038 | dGMP/AMP [1]: -0.1164 | fumarate [1]: 0.1396 | glucose-1/6-phosphate [1]: 0.3285 | glycerate [1]: 0.153 | guanine [1]: 0.03354 | guanosine [1]: 0.1241 | hypoxanthine [1]: 0.09912 | indole [1]: 0.3168 | inosine [1]: 0.1551 | 2_3-Diphosphoglyceric acid [1]: 0.06597 | 4-phosphopantothenate [1]: 0.04165 | 6-phospho-D-gluconate [1]: 0.04292 | FMN [1]: 0.1362 | IMP [1]: 0.02368 | Pyrophosphate [1]: 0.2656 | Sedoheptoluse bisphosphate [1]: 0.01639 | cyclic-AMP [1]: -0.09684 | glutathione disulfide [1]: 0.06546 | lactate [1]: 0.1283 | myo-inositol [1]: 0.176 | nicotinate [1]: 0.1246 | ornithine [1]: -0.2474 | phosphoenolpyruvate [1]: 0.1975 | pyruvate [1]: 0.1649 | ribose-phosphate [1]: 0.4239 | sarcosine/alanine [1]: -0.04603 | sn-glycerol-3-phosphate [1]: 0.03018 | succinate/methylmalonic acid [1]: 0.08193 | uridine [1]: 0.101 | xanthosine [1]: 0.04674

EC50 (P. falciparum): 396 nM
Structure (SMILES): Cc1ccc(-c2cc3nc4c(c(O)n3n2)CCCC4)cc1 [MMV006937]
Acetyllysine [1]: 0.001543 | N-acetyl-L-ornithine [1]: -0.1685 | N-carbamoyl-L-aspartate [1]: 1.991 | NADPH [1]: -0.4265 | dAMP [1]: -0.0863 | dCMP [1]: -1.279 | dTDP [1]: -1.586 | dTMP [1]: -1.181 | dTTP [1]: -2.058 | dihydroorotate [1]: 2.759 | orotate [1]: -1.871 | DLH [1]: -0.331 | DLS/SDL/SID [1]: -0.7353 | PD [1]: 0.3712 | PEE [1]: -0.2807 | PVNF [1]: -1.612 | 3-phosphoglycerate [1]: -0.6487 | ADP-D-glucose [1]: -0.1406 | ATP [1]: -0.4135 | CDP [1]: -1.006 | D-sedoheptulose-1/7-phosphate [1]: 0.1087 | FAD [1]: 0.1332 | GMP [1]: -0.07362 | NAD+ [1]: 1.3162 | NADP+ [1]: -0.2641 | Octoluse Bisphosphate [1]: -0.3 | Pyroglutamic acid [1]: -0.3275 | UDP-D-glucose [1]: -0.04224 | UDP-D-glucuronate [1]: -0.6063 | UDP-N-acetyl-glucosamine [1]: -0.2962 | UDP [1]: -1.454 | UMP [1]: -1.3 | UTP [1]: -2.161 | a-ketoglutarate [1]: -0.5175 | citrate/isocitrate [1]: -0.9752 | cytidine [1]: 0.2747 | dATP [1]: 0.08499 | dGMP/AMP [1]: -0.2088 | fumarate [1]: 0.7624 | glucose-1/6-phosphate [1]: -0.09446 | glycerate [1]: 0.7002 | guanine [1]: 0.3064 | guanosine [1]: 0.2389 | hypoxanthine [1]: -0.05386 | indole [1]: -0.1272 | inosine [1]: -0.07571 | 2_3-Diphosphoglyceric acid [1]: -0.6436 | 4-phosphopantothenate [1]: -0.3901 | 6-phospho-D-gluconate [1]: -0.1214 | FMN [1]: -0.5746 | IMP [1]: 0.1416 | Pyrophosphate [1]: -0.6696 | Sedoheptoluse bisphosphate [1]: 0.01407 | cyclic-AMP [1]: -0.2332 | glutathione disulfide [1]: 0.02779 | lactate [1]: -0.3487 | myo-inositol [1]: 0.03438 | nicotinate [1]: -0.2273 | ornithine [1]: -0.08655 | phosphoenolpyruvate [1]: -0.5043 | pyruvate [1]: -0.2395 | ribose-phosphate [1]: 0.1461 | sarcosine/alanine [1]: 0.1551 | sn-glycerol-3-phosphate [1]: -0.1355 | succinate/methylmalonic acid [1]: -0.2134 | uridine [1]: -0.8059 | xanthosine [1]: -0.1801
